The test system of assay [1] is cleaved form of caspase 3. The assay is described as follows: Quantification of the cleaved form of caspase 3 in vivo (MSD ELISA, RS4;11 xenograft). Further details: species or system mice (SCID strain). As to conditions: oral treatment, RS4;11 xenograft in SCID mice. Here is the method: (§1) The ability of the compounds of the invention to activate caspase 3 is evaluated in a xenograft model of RS4;11 leukaemia cells.
1×10^7 RS4;11 cells are grafted subcutaneously into immunosuppressed mice (SCID strain). 25 to 30 days after the graft, the animals are treated orally with the various compounds. After treatment, the tumour masses are recovered and lysed, and the cleaved (activated) form of caspase 3 is quantified in the tumour lysates.
The quantification is carried out using the “Meso Scale Discovery (MSD) ELISA platform” test, which specifically assays the cleaved form of caspase 3. It is expressed in the form of an activation factor corresponding to the ratio between the quantity of cleaved caspase 3 in the treated mice divided by the quantity of cleaved caspase 3 in the control mice.
A general note: ELISA stands for enzyme-linked immunosorbent assay.

In another assay the target is Bcl-2 protein (Homo sapiens (Human), UniProt P10415). The assay is described as follows: Inhibition of Bcl-2 by the fluorescence polarisation technique. Type of assay: binding. As to conditions: fluorescence polarisation test; concentration that inhibits fluorescence polarisation by 50%; read-out: IC50 (nM) Bcl-2 FP. Here is the method:
The fluorescence polarisation tests were carried out on microplates (384 wells). […] After incubation for 2 hours, the fluorescence polarisation is measured.
(In general: Fluorescence polarisation rises when a labelled molecule tumbles more slowly, as on binding a larger partner.)

Assay [2] concerns RS4;11 leukaemia tumour line. The assay is described as follows: In vitro cytotoxicity (Microculture Tetrazolium Assay, 48 hours). The assay is classed as cell-based. As to conditions: Homo sapiens, RS4;11 cells, 48 hours exposure, MTT, concentration that inhibits cell viability by 50%, read-out: IC50 (nM) MTT RS4. Here is the method: The cytotoxicity studies were carried out on the RS4;11 leukaemia tumour line.
The cells are distributed onto microplates and exposed to the test compounds for 48 hours.

The test system of another assay is caspase 3. The assay is described as follows: Induction of caspase activity in vivo (DEVDase activity in tumour lysates, RS4;11 xenograft). Also on record: species or system mice (SCID strain). The following applies: Mus musculus; oral treatment, 50 mg/kg, 16 hours after treatment, RS4;11 xenograft in SCID mice; read-out: Activation factor (versus control), DEVDase activity in the tumours. Here is the method:
as §1
1×10^7 RS4;11 cells are grafted sub-cutaneously into immunosuppressed mice (SCID strain). 25 to 30 days after the graft, the animals are treated orally with the various compounds. Sixteen hours after treatment, the tumour masses are recovered and lysed, and the caspase 3 activity is measured in the tumour lysates.
This enzymatic measurement is carried out by assaying the appearance of a fluorigenic cleavage product (DEVDase activity, Promega). It is expressed in the form of an activation factor corresponding to the ratio between the two caspase activities:the activity for the treated mice divided by the activity for the control mice.

Structures can show the parent of a compound that is named as a salt.

Sequence of Bcl-2 protein (P10415 whole entry): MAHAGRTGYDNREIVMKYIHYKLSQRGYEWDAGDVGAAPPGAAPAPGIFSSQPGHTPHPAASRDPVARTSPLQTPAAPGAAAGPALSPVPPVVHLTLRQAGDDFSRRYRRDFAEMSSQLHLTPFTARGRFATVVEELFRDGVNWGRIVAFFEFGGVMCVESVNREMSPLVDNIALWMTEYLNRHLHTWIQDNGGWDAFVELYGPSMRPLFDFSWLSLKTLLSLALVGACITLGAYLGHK

As to `Cl.Cn1cc(N(C(=O)c2cc(-c3cc(Cl)ccc3C(=O)N3Cc4ccccc4C[C@H]3CN3CCOCC3)n3c2CCCC3)c2ccc(O)cc2)cn1` [Example 135, 3-(5-Chloro-2-{[(3S)-3-(morpholin-4-ylmethyl)-3,4-dihydroisoquinolin-2(1H)-yl]carbonyl}phenyl)-N-(4-hydroxyphenyl)-N-(1-methyl-1H-pyrazol-4-yl)-5,6,7,8-tetrahydroindolizine-1-carboxamide hydrochloride], in assay [1] (50 mg/kg), the “Activation factor (versus control), cleaved caspase 3 MSD test in the tumours” value (“Activation factor (versus control)” for short) is reported as 60 (50 mg/kg). For the same molecule, the figures for the IC50 (on Bcl-2 protein; in assay [2]) were 6 nM and 37.4 nM, respectively.
As for `CCCCN(C(=O)c1cc(-c2cc3c(cc2C(=O)N2Cc4ccccc4C[C@H]2CN2CCOCC2)OCO3)n2c1CCCC2)c1ccc(O)cc1.Cl` [Example 87, N-Butyl-N-(4-hydroxyphenyl)-3-{6-[((3S)-3-(4-morpholinylmethyl)-3,4-dihydro-2(1H)-isoquinolinyl)carbonyl]-1,3-benzodioxol-5-yl}-5,6,7,8-tetrahydro-1-indolizine carboxamide hydrochloride], the “Activation factor (versus control)” value in assay [1] (50 mg/kg) is recorded as 18.3 (50 mg/kg). Besides, the IC50 at Bcl-2 protein was 27 nM; in assay [2] it was 121 nM.
As to `CN1CCc2cc(N(C(=O)c3cc(-c4cc(Cl)ccc4C(=O)N4Cc5ccccc5C[C@H]4CN4CCOCC4)n4ccccc34)c3ccc(O)cc3)ccc21` [Example 66, 3-{5-Chloro-2-[((3S)-3-(4-morpholinylmethyl)-3,4-dihydro-2(1H)-isoquinolinyl)carbonyl]phenyl}-N-(4-hydroxyphenyl)-N-(1-methyl-2,3-dihydro-1H-indol-5-yl)-1-indolizine carboxamide bis(hydrochloride)], the IC50 was found to be 16 nM at Bcl-2 protein and 21.7 nM in assay [2]. Further, the fold induction at 50 mg/kg in the assay with caspase 3 came to 24.7.
In the case of `CN1CCc2cc(N(C(=O)c3cc(-c4cc5c(cc4C(=O)N4Cc6ccccc6C[C@H]4CN4CCOCC4)OCO5)n4c3CCCC4)c3ccc(O)cc3)ccc21` [Example 9, N-[4-(Hydroxy)phenyl]-N-(1-methyl-2,3-dihydro-1H-indol-5-yl)-3-{6-[((3S)-3-(4-morpholinylmethyl)-3,4-dihydro-2(1H)-isoquinolinyl)carbonyl]-1,3-benzodioxol-5-yl}-5,6,7,8-tetrahydro-1-indolizine carboxamide hydrochloride], the results for the IC50 (at Bcl-2 protein; in assay [2]) were 13 nM and 16.1 nM, respectively. For the same molecule, in the assay on caspase 3, the fold induction at 50 mg/kg turned out to be 20.6.
Consider `Cl.O=C(c1cc(-c2cc3c(cc2C(=O)N2Cc4ccccc4C[C@H]2CN2CCOCC2)OCO3)n2c1CCCC2)N(c1ccc(O)cc1)c1cccc(F)c1` [Example 122, N-(3-Fluorophenyl)-N-(4-hydroxyphenyl)-3-(6-{[(3S)-3-(morpholin-4-ylmethyl)-3,4-dihydroisoquinolin-2(1H)-yl]carbonyl}-1,3-benzdioxol-5-yl)-5,6,7,8-tetrahydroindolizine-1-carboxamide hydrochloride], for which the “Activation factor (versus control)” value in assay [1] (25 mg/kg) is given as 17.4 (25 mg/kg). Also, the IC50 is 16 nM on Bcl-2 protein and 43.5 nM in assay [2].
On to `O=C(c1cc(-c2cc3c(cc2C(=O)N2Cc4ccccc4C[C@H]2CN2CCOCC2)OCO3)n2c1CCCC2)N(c1ccc(O)cc1)c1ccc2c(c1)CCN2` [Example 8, N-(2,3-Dihydro-1H-indol-5-yl)-N-[4-(hydroxy)phenyl]-3-{6-[((3S)-3-(4-morpholinylmethyl)-3,4-dihydro-2(1H)-isoquinolinyl)carbonyl]-1,3-benzodioxol-5-yl}-5,6,7,8-tetrahydro-1-indolizine carboxamide bis(hydrochloride)], for which the figures for the IC50 (on Bcl-2 protein; in assay [2]) were 15 nM and 25.6 nM, respectively. For the same molecule, the fold induction at 50 mg/kg in the assay with caspase 3 came to 9.8.
Consider `Cc1ccc(N(C(=O)c2cc(-c3cc4c(cc3C(=O)N3Cc5ccccc5C[C@H]3CN3CCOCC3)OCO4)n3c2CCCC3)c2ccc(O)cc2)cc1F` [Example 4, N-(3-Fluoro-4-methylphenyl)-N-(4-hydroxyphenyl)-3-{6-[((3S)-3-(4-morpholinylmethyl)-3,4-dihydro-2(1H)-isoquinolinyl)carbonyl]-1,3-benzodioxol-5-yl}-5,6,7,8-tetrahydro-1-indolizine carboxamide hydrochloride], for which the IC50 at Bcl-2 protein came out at 19 nM; in assay [2] it was 27.1 nM. For the same molecule, the fold induction at 50 mg/kg in the assay with caspase 3 stood at 29.2.
As to `Cl.O=C(c1cc(-c2cc(Cl)ccc2C(=O)N2Cc3ccccc3C[C@H]2CN2CCOCC2)n2c1COCC2)N(c1ccccc1)c1ccc(O)cc1` [Example 78, 6-{5-Chloro-2-[((3S)-3-(4-morpholinylmethyl)-3,4-dihydro-2(1H)-isoquinolinyl)carbonyl]phenyl}-N-(4-hydroxyphenyl)-N-phenyl-3,4-dihydro-1H-pyrrolo[2,1-c][1,4]oxazine-8-carboxamide hydrochloride], in assay [1] (25 mg/kg), the “Activation factor (versus control)” value is on record as 10.4 (25 mg/kg). The figures for the IC50 (at Bcl-2 protein; in assay [2]) were 31 nM and 101 nM, respectively.
Turning to `CN1CCc2cc(N(C(=O)c3cc(-c4cc(Cl)ccc4C(=O)N4Cc5ccccc5C[C@H]4CN4CCOCC4)n4c3CCCC4)c3ccc(O)cc3)ccc21` [Example 23, 3-{5-Chloro-2-[((3S)-3-(4-morpholinylmethyl)-3,4-dihydro-2(1H)-isoquinolinyl)carbonyl]phenyl}-N-(4-hydroxyphenyl)-N-(1-methyl-2,3-dihydro-1H-indol-5-yl)-5,6,7,8-tetrahydro-1-indolizine carboxamide bis(hydrochloride)], the IC50 at Bcl-2 protein turned out to be 14 nM; in assay [2] it was 23 nM. Besides, in the assay with caspase 3, the fold induction at 50 mg/kg came to 22.7.

What is called IC50 is the concentration that gives 50% inhibition.

The values are drawn from patent US9120791B2, “Indolizine compounds, a process for their preparation and pharmaceutical compositions containing them” (LES LABORATOIRES SERVIER, priority 2012, dated 2015).
